Assay [1] has as its system Cochlioborus miyabeanus. It counts as cell-based. The conditions noted are these: 100 ppm in potato dextrose agar, 28 or 22° C., 48 hours.
Assay [2] deals with Pyricularia oryzae. It counts as cell-based. The conditions noted are these: 100 ppm in potato dextrose agar, 28 or 22° C., 48 hours.
Assay [3] concerns Pyricularia oryzae. The experiment in a line: whole plant or invertebrate. The conditions noted are these: for rank (control effect, protective value from lesion number): 100 ppm spray, rice seedling (Jikkoku) 4-leaf stage, lesion number on fourth leaf 6 days after inoculation; for pest or weed control at 100 ppm: Pyricularia oryzae, foliar, 144 h, read-out: rank (control effect, protective value from lesion number). It counts as in vivo.

In assay [4] the test system is Gibberella fujikuroi. Type of assay: cell-based. The conditions noted are these: 100 ppm in potato dextrose agar, 28 or 22° C., 48 hours. The protocol: (§1) Test for Antifungal Activity
(§2) A test compound dissolved in acetone was mixed in a potato dextrose agar medium (manufactured by Nissui Seiyaku K. K.) so that the final concentration of the test compound was 100 ppm and then poured in a Petri dish. To this Perti dish after the agar was completely solidified, a cylindrical section prepared by punching a mycelial colony of each of plant pathogenic fungi cultured in another Petri dish by means of a cork borer was inoculated and cultured at 28 or 22° C. 48 Hours after the inoculation, the diameter of the mycelial colony was determined. Control percentages were calculated by comparing the diameter of the mycelial colony in a treated area with that in an untreated area. And, antifungal effect was ranked according to the following criterion.
(§3) A; control percentage ≧80%
(§4) B; control percentage 50 to 79%
(§5) C; control percentage <50%

Assay [5] deals with Fusarium oxysporum f. sp. lycopersici. It counts as cell-based. The conditions noted are these: 100 ppm in potato dextrose agar, 28 or 22° C., 48 hours. The protocol:
as §1, §2, §3, §4, §5

Assay [6] relates to Glomerella cingalata. It counts as cell-based. The conditions noted are these: 100 ppm in potato dextrose agar, 28 or 22° C., 48 hours. The protocol: as §1, §2, §3, §4, §5
The test system of assay [7] is Alternaria alternata Japanese pear pathotype. It counts as cell-based. The conditions noted are these: 100 ppm in potato dextrose agar, 28 or 22° C., 48 hours. As for the experimental part: as §1, §2, §3, §4, §5
The subject of assay [8] is Botrytis cinerea. Type of assay: cell-based. The conditions noted are these: 100 ppm in potato dextrose agar, 28 or 22° C., 48 hours. As for the experimental part:
as §1, §2, §3, §4, §5

The test system of assay [9] is Rhizoctonia solani. It counts as cell-based. The conditions noted are these: 100 ppm in potato dextrose agar, 28 or 22° C., 48 hours. The protocol:
as §1, §2, §3, §4, §5

Assay [10] concerns Verticillium aibo-atrum. Type of assay: cell-based. The conditions noted are these: 100 ppm in potato dextrose agar, 28 or 22° C., 48 hours. As for the experimental part: as §1, §2, §3, §4, §5
Assay [11] concerns Sclerotinia minor. It counts as cell-based. The conditions noted are these: 100 ppm in potato dextrose agar, 28 or 22° C., 48 hours. The protocol:
as §1, §2, §3, §4, §5

In assay [12] the test system is Colletotrichum atramentarium. It counts as cell-based. The conditions noted are these: 100 ppm in potato dextrose agar, 28 or 22° C., 48 hours. As for the experimental part:
as §1, §2, §3, §4, §5

In assay [13] the test system is Sphaerotheca fuliginea. Kind of assay: Test for control effect against powdery mildew of Cucurbitaceae (spray on cucumber seedlings). It counts as in vivo. The conditions noted are these: 200 ppm spray, cucumber first foliage leaf, 10 days after inoculation. The text has this: Test for Control Effect Against Powdery Mildew of Cucurbitaceae
A spray liquid comprising a test compound whose concentration was adjusted to be 200 ppm by dilution with water was sprayed to a cucumber grown in a vinyl pot of 3 cm in diameter when its first foliage leaf was developed. The air-dried cucumber seedling was inoculated with a conidium suspension of Sphaerotheca fuliginea. Thereafter, the cucumber seedling was transferred in an air-conditioned greenhouse. 10 Days after the inoculation, the disease severity was observed. The protective value was calculated by comparing the disease severity in a treated area with that in an untreated area. Then, control effect was ranked according to the following criterion.
B; protective value 50 to 79%

Some results are limits rather than exact numbers.

`CCc1ccc2nc(C)c(C)c(OC(C)=O)c2c1` [Compound No. 10]: the “rank (antifungal effect, control percentage of mycelial colony diameter)” value in assay [1] is “B (control percentage 50 to 79%)”; in assay [2], “A (control percentage ≧80%)”; in assay [4] it was “C (control percentage <50%)”; in assay [5] it was “C (control percentage <50%)”; in [6], “B (control percentage 50 to 79%)”; in assay [7], “C (control percentage <50%)”. Besides, the “rank (antifungal effect, control percentage of mycelial colony diameter)” value is on record as “C (control percentage <50%)” in assay [8]; “C (control percentage <50%)” in [9]; “C (control percentage <50%)” in assay [10]; “C (control percentage <50%)” in assay [11]; “B (control percentage 50 to 79%)” in [12]. Besides, in [3], the “rank (control effect, protective value from lesion number)” value is “A (protective value ≧80%)”.

For the molecule `CCCCc1ccc2nc(C)c(C)c(O)c2c1` [Compound No. 28], the “rank (antifungal effect, control percentage of mycelial colony diameter)” value in [1] is “C (control percentage <50%)”; in assay [2], “B (control percentage 50 to 79%)”; in assay [4], “C (control percentage <50%)”; in assay [5], “C (control percentage <50%)”; in assay [6] it was “B (control percentage 50 to 79%)”; in assay [7], “C (control percentage <50%)”. Further, the “rank (antifungal effect, control percentage of mycelial colony diameter)” value is recorded as “C (control percentage <50%)” in assay [8]; “C (control percentage <50%)” in [9]; “A (control percentage ≧80%)” in assay [10]; “C (control percentage <50%)” in assay [11]; “B (control percentage 50 to 79%)” in assay [12]. The “rank (control effect, protective value from lesion number)” value in assay [3] was “A (protective value ≧80%)”.

As to `CC(=O)Oc1c(C)c(C)nc2ccc(Oc3ccccc3)cc12` [Compound No. 136], in assay [13], the “rank (control effect, protective value from disease severity)” value was “A (protective value ≧80%)”. In assay [3], the “rank (control effect, protective value from lesion number)” value is reported as “A (protective value ≧80%)”.

Take `CCC(C)c1ccc2nc3c(c(OC(C)=O)c2c1)CCC3` (stereo not shown) [Compound No. 153]: the “rank (control effect, protective value from disease severity)” value in assay [13] is “A (protective value ≧80%)”. For the same molecule, the “rank (control effect, protective value from lesion number)” value in [3] was “B (protective value 50 to 79%)”.

For the molecule `CCC(C)c1cc(Cl)c2nc(C)c(C)c(OC(C)=O)c2c1` (stereo not shown) [Compound No. 214, 4-acetoxy-6-s-butyl-8-chloro-2,3-dimethylquinoline], in assay [13], the “rank (control effect, protective value from disease severity)” value is given as “A (protective value ≧80%)”. Also, in assay [3], the pest or weed control at 100 ppm is more than 80%.

As to `CCCCc1cc(Cl)c2nc(C)c(C)c(OC(C)=O)c2c1` [Compound No. 216], in assay [13], the “rank (control effect, protective value from disease severity)” value is “B (protective value 50 to 79%)”. Besides, in [3], the “rank (control effect, protective value from lesion number)” value is recorded as “A (protective value ≧80%)”.

Consider `CC(=O)Oc1c(C)c(C)nc2c(Cl)cc(C(C)(C)C)cc12` [Compound No. 218], for which the “rank (control effect, protective value from disease severity)” value in [13] is “A (protective value ≧80%)”. Further, the “rank (control effect, protective value from lesion number)” value in assay [3] is listed as “A (protective value ≧80%)”.

In the case of `CCc1cc(CC)c2nc(C)c(C)c(OC(C)=O)c2c1` [Compound No. 268], in assay [13], the “rank (control effect, protective value from disease severity)” value is listed as “B (protective value 50 to 79%)”. In addition, the “rank (control effect, protective value from lesion number)” value in assay [3] is given as “A (protective value ≧80%)”.

On to `CCC(C)c1cc(CO)c2nc(C)c(C)c(OC(C)=O)c2c1` (stereo not shown) [Compound No. 340, 4-acetoxy-6-s-butyl-8-hydroxymethyl-2,3-dimethylquinoline], for which the “rank (control effect, protective value from disease severity)” value in assay [13] is on record as “A (protective value ≧80%)”. Besides, the pest or weed control at 100 ppm in [3] was more than 80%.

Consider `CCC(C)c1cc(CCl)c2nc(C)c(C)c(OC(C)=O)c2c1` (stereo not shown) [Compound No. 344, 4-acetoxy-6-s-butyl-8-chloromethyl-2,3-dimethylquinoline], for which the “rank (control effect, protective value from disease severity)” value in [13] is “A (protective value ≧80%)”. Also, the pest or weed control at 100 ppm in assay [3] was more than 80%.

As to `CCC(C)c1cc(C=O)c2nc(C)c(C)c(OC(C)=O)c2c1` (stereo not shown) [Compound No. 356, 4-acetoxy-6-s-butyl-8-formyl-2,3-dimethylquinoline], the “rank (control effect, protective value from disease severity)” value in assay [13] is “A (protective value ≧80%)”. For the same molecule, the pest or weed control at 100 ppm in [3] was more than 80%.

For the molecule `CC(=O)Oc1c(C)c(C)nc2ccc(OC(C)C)cc12` [compound 24], the “rank (control effect, protective value from disease severity)” value in [13] is “A (protective value ≧80%)”. Also, the “rank (control effect, protective value from lesion number)” value in assay [3] is “B (protective value 50 to 79%)”.

For the molecule `CCCCc1ccc2nc(C)c(CCC)c(OC(C)=O)c2c1` [compound 45], in assay [13], the “rank (control effect, protective value from disease severity)” value is “B (protective value 50 to 79%)”. The “rank (control effect, protective value from lesion number)” value in assay [3] is recorded as “A (protective value ≧80%)”.

With `CCC(C)c1ccc2nc(C)c(C)c(OC(C)=O)c2c1` (stereo not shown) [compound 55], the “rank (control effect, protective value from disease severity)” value in assay [13] was “A (protective value ≧80%)”. For the same molecule, the “rank (control effect, protective value from lesion number)” value in assay [3] is “A (protective value ≧80%)”.

Take `CCC(=O)Oc1c(C)c(C)nc2ccc(C(C)CC)cc12` (stereo not shown) [compound 56]: the “rank (control effect, protective value from disease severity)” value in [13] was “A (protective value ≧80%)”. The “rank (control effect, protective value from lesion number)” value in assay [3] is “A (protective value ≧80%)”.

`CCC(C)c1ccc2nc(C)c(C)c(OC(=O)c3ccccc3)c2c1` (stereo not shown) [compound 61]: the “rank (control effect, protective value from disease severity)” value in assay [13] was “B (protective value 50 to 79%)”. Moreover, in [3], the “rank (control effect, protective value from lesion number)” value is “A (protective value ≧80%)”.

For `CCC(C)c1ccc2nc(C)c(C)c(OC(=O)OC)c2c1` (stereo not shown) [compound 65], in assay [13], the “rank (control effect, protective value from disease severity)” value is listed as “A (protective value ≧80%)”. In addition, the “rank (control effect, protective value from lesion number)” value in assay [3] is given as “A (protective value ≧80%)”.

In the case of `CCOC(=O)Oc1c(C)c(C)nc2ccc(C(C)CC)cc12` (stereo not shown) [compound 66], in assay [13], the “rank (control effect, protective value from disease severity)” value is “A (protective value ≧80%)”. Further, the “rank (control effect, protective value from lesion number)” value in [3] is recorded as “A (protective value ≧80%)”.

In the case of `CCCCCCCCOC(=O)Oc1c(C)c(C)nc2ccc(C(C)CC)cc12` (stereo not shown) [compound 67], the “rank (control effect, protective value from disease severity)” value in assay [13] is on record as “A (protective value ≧80%)”. Moreover, in [3], the “rank (control effect, protective value from lesion number)” value was “A (protective value ≧80%)”.

As for `CCC(C)c1ccc2nc(C)c(C)c(OC(=O)Oc3ccccc3)c2c1` (stereo not shown) [compound 68], the “rank (control effect, protective value from disease severity)” value in [13] was “A (protective value ≧80%)”. Further, the “rank (control effect, protective value from lesion number)” value in assay [3] is given as “A (protective value ≧80%)”.

Turning to `CCC(C)c1ccc2nc(C)c(C)c(OC(=O)N(CC)CC)c2c1` (stereo not shown) [compound 72], the “rank (control effect, protective value from disease severity)” value in [13] is listed as “A (protective value ≧80%)”. In [3], the “rank (control effect, protective value from lesion number)” value is reported as “B (protective value 50 to 79%)”.

Consider `CC(=O)Oc1c(C)c(C)nc2ccc(CC(C)C)cc12` [compound 93], for which, in [13], the “rank (control effect, protective value from disease severity)” value is given as “A (protective value ≧80%)”. In addition, the “rank (control effect, protective value from lesion number)” value in assay [3] is listed as “A (protective value ≧80%)”.

As for `CC(=O)Oc1c(C)c(C)nc2ccc(Br)cc12` [compound 185], the “rank (control effect, protective value from disease severity)” value in assay [13] is “A (protective value ≧80%)”. For the same molecule, the “rank (control effect, protective value from lesion number)” value in assay [3] was “B (protective value 50 to 79%)”.

In the case of `CC(=O)Oc1c(C)c(C)nc2c(C)cc(Br)cc12` [compound 195], in assay [13], the “rank (control effect, protective value from disease severity)” value is “A (protective value ≧80%)”. Besides, the “rank (control effect, protective value from lesion number)” value in assay [3] is recorded as “A (protective value ≧80%)”.

On to `CC(=O)Oc1c(C)c(C)nc2ccc(Br)c(C)c12` [compound 197], for which the “rank (control effect, protective value from disease severity)” value in assay [13] is on record as “A (protective value ≧80%)”. Moreover, the “rank (control effect, protective value from lesion number)” value in assay [3] is “A (protective value ≧80%)”.

The values are drawn from patent US6680282B2 (priority 1997, dated 2004).
